Legend:
Caco-2 cells = test: Trans-epithelial electrical resistance (TEER), integrity of epithelial cell layer; format: cell-based, human; details: Caco-2 monolayer, monitored for 12 hours
diabetic model mice [1] = test: Blood glucose of diabetic model mice after oral administration of enteric-coated capsule loading lyophilized aggregate; format: in vivo, C57BL/6J mice
Method: (1) Streptozotocin (STZ) was intraperitoneally injected into 6-8 week-old C57BL/6J mice for five consecutive days to induce pancreatic islet B-cell damage. On the 17th day after the first injection, the blood glucose concentration of the mice was measured, and the diabetic mouse model was considered to be successfully established when the blood glucose concentration was higher than 300 mg/dL. (2) After the diabetic model mice were orally administered with a suspension of the above aggregate at an amount of insulin of 80 U/kg, blood was collected from the tail vein of the mice at different time points to monitor the change in blood glucose. In control experiment 1, an equal amount of free insulin was administered orally to the diabetic model mice. In control experiment 2, an equal volume of physiological saline was administered orally to the diabetic model mice. In control experiment 3, insulin was injected subcutaneously to the diabetic model mice at 5 U/kg. Change in blood glucose level of diabetic model mice after orally administered with an enteric-coated capsule loading the aggregate of insulin and chalcogen heterocyclic compound (1) The aggregate was prepared into a lyophilized powder and loaded in an enteric-coated capsule. In control experiment 1, an equal amount of free insulin was loaded in an enteric-coated capsule. (2) A diabetic mice model was established according to the method as above. The mice were administered with recombinant insulin at an amount of 20 U/kg, after which the blood was taken from the tail vein of the mice at different time points to monitor the change in blood glucose concentration. In control experiment 2, insulin was injected subcutaneously to the diabetic model mice at 5 U/kg.

diabetic model pigs = test: Blood glucose of diabetic model pigs after oral administration of enteric-coated capsule loading lyophilized aggregate; format: in vivo, Bama mini-pigs; details: oral enteric-coated capsule loading free insulin, 20 U/kg
Method: Change in blood glucose level of diabetic model pigs after orally administered with an enteric-coated capsule loading the aggregate of insulin and chalcogen heterocyclic compound (1) Streptozotocin (STZ, with a concentration of 75 mg/mL) was infused intravenously to 4-month-old Bama mini-pigs at 150 mg/kg to induce pancreatic islet B-cell damage. On the 7th day after the first infusion, the blood glucose concentration of the pigs was measured, and the diabetic pig model was considered to be successfully established when the blood glucose concentration was higher than 300 mg/dL. (2) The aggregate was prepared into a lyophilized powder and loaded in an enteric-coated capsule. In control experiment 1, an equal amount of free insulin was loaded in an enteric-coated capsule. (3) The diabetic model pigs were administered with recombinant insulin at an amount of 20 U/kg, after which the blood was taken from the jugular vein of the pigs at different time points to monitor the change in blood glucose concentration. (4) The diabetic model pigs were given normal food at the 3rd and 8th hour after administration, and the food bowl was removed after 15 minutes.

diabetic model mice [2] = test: Blood glucose of diabetic model mice after oral administration of aggregate suspension; format: in vivo, C57BL/6J mice
Method: Change in blood glucose level of diabetic model mice after administered orally with the aggregate of insulin and chalcogen heterocyclic compound (1) Streptozotocin (STZ) was intraperitoneally injected into 6-8 week-old C57BL/6J mice for five consecutive days to induce pancreatic islet B-cell damage. On the 17th day after the first injection, the blood glucose concentration of the mice was measured, and the diabetic mouse model was considered to be successfully established when the blood glucose concentration was higher than 300 mg/dL. (2) After the diabetic model mice were orally administered with a suspension of the above aggregate at an amount of insulin of 80 U/kg, blood was collected from the tail vein of the mice at different time points to monitor the change in blood glucose. In control experiment 1, an equal amount of free insulin was administered orally to the diabetic model mice. In control experiment 2, an equal volume of physiological saline was administered orally to the diabetic model mice. In control experiment 3, insulin was injected subcutaneously to the diabetic model mice at 5 U/kg. Change in blood glucose level in diabetic model mice after administration of a suspension of the aggregate of insulin and chalcogen heterocyclic compound: The diabetic model mice were orally administered with a suspension of the aggregate 2 obtained above at an amount of insulin of 50 U/kg, and then the blood was collected from the tail vein of the mice at different time points to monitor the change in blood glucose concentration. In control experiment 1, an equal volume of physiological saline was administered orally to the diabetic model mice, and in control experiment 2, insulin was injected subcutaneously to the diabetic model mice at 5 U/kg. Change in blood glucose level in diabetic model mice after administration of a suspension of the aggregate of insulin and chalcogen heterocyclic compound: The diabetic model mice were orally administered with a suspension of the above aggregate 3 at an amount of insulin of 50 U/kg. […]

[3] = subcutaneous injection 5 U/kg, 15 minutes after injection
[4] = subcutaneous injection 5 U/kg, within 15-180 minutes

Compound	change in TEER (Caco-2 cells)	reduction in blood glucose concentration (diabetic model mice [1]; oral enteric-coated capsule loading free insulin, 20 U/kg)	reduction in blood glucose (diabetic model mice [1]; [3])	reduction of blood glucose concentration (diabetic model mice [1]; [4])	reduction in blood glucose concentration (diabetic model pigs)	reduction in blood glucose concentration (diabetic model mice [2]; oral, equal amount of free insulin (80 U/kg))	reduction in blood glucose concentration (diabetic model mice [2]; [3])	reduction of blood glucose concentration (diabetic model mice [2]; [4])
CCCCCCCCCC(=O)[O-].[Na+] [sodium caprate]	drastically reduced							
free insulin: human recombinant insulin, used unencapsulated as oral control or subcutaneous injection control		little reduction	significant reduction	30-50%	little reduction	little reduction	significant reduction	30-50%

— patent US20250242032A1, “AGGREGATE FORMED BY MEANS OF ASSEMBLING CHALCOGEN HETEROCYCLIC COMPOUND AND INSULIN, AND PREPARATION METHOD THEREFOR, AND INSULIN ORAL PREPARATION” (FUZHOU UNIVERSITY, priority 2021, published 2025)
